The values below come from BindingDB's records for doi:10.1021/jm901710h (Nerviano Medical Sciences, 2010).

Molecules are shown by their SMILES.

The target in the test is 3-phosphoinositide-dependent protein kinase 1, PDPK1 (Homo sapiens) (UniProt O15530). As to the kind of experiment: Inhibition of PDK1.

For orientation: IC50 means the concentration needed to halve the response being measured.

Chain of 3-phosphoinositide-dependent protein kinase 1, PDPK1 (Homo sapiens) (O15530 whole entry, looked up): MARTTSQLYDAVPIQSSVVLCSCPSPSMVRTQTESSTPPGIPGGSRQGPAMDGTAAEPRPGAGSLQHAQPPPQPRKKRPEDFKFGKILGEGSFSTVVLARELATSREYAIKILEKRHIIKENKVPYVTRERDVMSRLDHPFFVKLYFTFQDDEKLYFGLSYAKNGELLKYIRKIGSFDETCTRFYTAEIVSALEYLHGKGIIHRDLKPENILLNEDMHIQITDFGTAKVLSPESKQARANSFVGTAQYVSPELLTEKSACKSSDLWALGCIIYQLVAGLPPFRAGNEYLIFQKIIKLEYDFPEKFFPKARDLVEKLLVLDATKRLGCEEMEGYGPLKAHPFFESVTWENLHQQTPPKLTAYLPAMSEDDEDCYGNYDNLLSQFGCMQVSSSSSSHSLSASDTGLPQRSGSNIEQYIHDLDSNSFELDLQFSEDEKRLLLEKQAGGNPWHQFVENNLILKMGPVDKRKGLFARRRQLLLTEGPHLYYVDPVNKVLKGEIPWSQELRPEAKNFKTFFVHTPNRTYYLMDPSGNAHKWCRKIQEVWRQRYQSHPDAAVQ

For `CC(=O)N1CCC(Nc2ncc3c(n2)-c2c(c(C(N)=O)nn2C)CC3)CC1` [8-[(1-Acetylpiperidin-4-yl)amino]-1-methyl-4,5-dihydro-1H-pyrazolo[4,3-h]quinazoline-3-carboxamide], the IC50 was > 10 µM. The same measure for `Cn1nc(C(N)=O)c2c1-c1nc(NC3CCN(C(=O)c4ccccc4)CC3)ncc1CC2` [1-Methyl-8-{[1-(phenylcarbonyl)piperidin-4-yl]amino}-4,5-dihydro-1H-pyrazolo[4,3-h]quinazoline-3-carboxamide]: > 10 µM.
